Key:
Assay in all cases: radiometric filter-binding kinase assay, Kinase HotSpot
Details in all cases: compound 0.5 µM; ATP 10 µM
[1] = target: ABL2 (human) (UniProt P42684)
[2] = target: AXL (human) (UniProt P30530)
[3] = target: BMX (human) (UniProt P51813)
[4] = target: CAMKK1 (human) (UniProt Q8N5S9)
[5] = target: CDK2 CCNE1 (human) (UniProt P24941+P24864)
[6] = target: CDK9 CCNT1 (human) (UniProt P50750+O60563)
[7] = target: CHEK1 (human) (UniProt O14757)
[8] = target: CHEK2 (human) (UniProt O96017)
[9] = target: CLK3 (human) (UniProt P49761)
[10] = target: CSK (human) (UniProt P41240)
[11] = target: CSNK1G1 (human) (UniProt Q9HCP0)
[12] = target: DSTYK (human) (UniProt Q6XUX3)
[13] = target: DYRK2 (human) (UniProt Q92630)
[14] = target: EPHA6 (human) (UniProt Q9UF33)
[15] = target: EPHB2 (human) (UniProt P29323)
[16] = target: GRK7 (human) (UniProt Q8WTQ7)
[17] = target: HIPK4 (human) (UniProt Q8NE63)
[18] = target: ITK (human) (UniProt Q08881)
[19] = target: JAK1 JH1 catalytic (human) (UniProt P23458)
[20] = target: LTK (human) (UniProt P29376)
[21] = target: MAP3K2 (human) (UniProt Q9Y2U5)
[22] = target: MAP3K9 (human) (UniProt P80192)
[23] = target: MAPK10 (human) (UniProt P53779)
[24] = target: MARK3 (human) (UniProt P27448)
[25] = target: MKNK2 (human) (UniProt Q9HBH9)
[26] = target: NEK1 (human) (UniProt Q96PY6)
[27] = target: NTRK2 (human) (UniProt Q16620)
[28] = target: NUAK1 (human) (UniProt O60285)
[29] = target: NUAK2 (human) (UniProt Q9H093)
[30] = target: PAK7 (human) (UniProt Q9P286)
[31] = target: PKN2 (human) (UniProt Q16513)
[32] = target: PRKCA (human) (UniProt P17252)
[33] = target: PRKCD (human) (UniProt Q05655)
[34] = target: PRKCZ (human) (UniProt Q05513)
[35] = target: PRKD1 (human) (UniProt Q15139)
[36] = target: PRKD2 (human) (UniProt Q9BZL6)
[37] = target: PTK6 (human) (UniProt Q13882)
[38] = target: TAOK1 (human) (UniProt Q7L7X3)
[39] = target: TAOK2 (human) (UniProt Q9UL54)
[40] = target: TTK (human) (UniProt P33981)
[41] = target: YES1 (human) (UniProt P07947)

Sequence of DSTYK (human) (Q6XUX3 whole entry, looked up): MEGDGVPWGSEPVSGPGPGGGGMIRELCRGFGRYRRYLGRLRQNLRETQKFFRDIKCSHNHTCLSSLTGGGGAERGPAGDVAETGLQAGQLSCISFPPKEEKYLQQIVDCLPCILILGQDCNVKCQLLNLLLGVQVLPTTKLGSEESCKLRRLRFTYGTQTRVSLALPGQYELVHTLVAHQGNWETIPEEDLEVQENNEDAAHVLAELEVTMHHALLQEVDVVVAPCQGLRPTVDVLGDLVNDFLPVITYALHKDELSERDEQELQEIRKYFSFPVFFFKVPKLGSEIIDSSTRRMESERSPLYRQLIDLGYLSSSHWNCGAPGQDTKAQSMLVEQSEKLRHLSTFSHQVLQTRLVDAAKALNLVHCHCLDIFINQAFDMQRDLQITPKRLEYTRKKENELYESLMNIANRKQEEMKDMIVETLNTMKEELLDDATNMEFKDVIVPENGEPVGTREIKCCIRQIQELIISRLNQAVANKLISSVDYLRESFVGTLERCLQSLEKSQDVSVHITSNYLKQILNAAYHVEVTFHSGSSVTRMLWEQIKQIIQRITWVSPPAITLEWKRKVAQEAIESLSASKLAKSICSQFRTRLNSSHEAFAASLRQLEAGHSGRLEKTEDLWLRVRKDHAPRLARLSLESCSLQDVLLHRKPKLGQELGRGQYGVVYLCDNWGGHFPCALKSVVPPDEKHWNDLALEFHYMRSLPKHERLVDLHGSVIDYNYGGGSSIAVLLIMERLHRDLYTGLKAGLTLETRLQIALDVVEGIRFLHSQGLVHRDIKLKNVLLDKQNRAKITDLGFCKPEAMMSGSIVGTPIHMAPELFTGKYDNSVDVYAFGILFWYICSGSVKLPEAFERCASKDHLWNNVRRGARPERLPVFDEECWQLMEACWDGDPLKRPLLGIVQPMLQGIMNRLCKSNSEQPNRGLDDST
Sequence of NUAK2 (human) (Q9H093 whole entry, looked up): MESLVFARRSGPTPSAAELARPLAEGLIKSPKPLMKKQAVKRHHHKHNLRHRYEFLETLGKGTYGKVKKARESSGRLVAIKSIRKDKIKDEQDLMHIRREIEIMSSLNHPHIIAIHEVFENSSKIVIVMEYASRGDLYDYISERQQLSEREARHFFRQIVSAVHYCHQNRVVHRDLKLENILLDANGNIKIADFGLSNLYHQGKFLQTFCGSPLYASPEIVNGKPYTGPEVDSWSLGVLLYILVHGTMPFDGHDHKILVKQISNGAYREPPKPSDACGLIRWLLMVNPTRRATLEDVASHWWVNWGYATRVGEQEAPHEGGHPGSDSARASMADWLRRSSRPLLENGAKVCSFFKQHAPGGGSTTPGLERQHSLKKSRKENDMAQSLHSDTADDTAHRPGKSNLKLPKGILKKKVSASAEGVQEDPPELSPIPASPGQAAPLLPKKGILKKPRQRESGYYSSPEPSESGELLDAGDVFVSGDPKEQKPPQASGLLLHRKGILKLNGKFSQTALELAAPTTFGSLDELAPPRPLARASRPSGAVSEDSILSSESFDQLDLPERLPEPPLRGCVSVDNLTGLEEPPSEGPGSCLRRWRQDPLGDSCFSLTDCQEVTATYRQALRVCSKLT
Sequence of NTRK2 (human) (Q16620 whole entry, looked up): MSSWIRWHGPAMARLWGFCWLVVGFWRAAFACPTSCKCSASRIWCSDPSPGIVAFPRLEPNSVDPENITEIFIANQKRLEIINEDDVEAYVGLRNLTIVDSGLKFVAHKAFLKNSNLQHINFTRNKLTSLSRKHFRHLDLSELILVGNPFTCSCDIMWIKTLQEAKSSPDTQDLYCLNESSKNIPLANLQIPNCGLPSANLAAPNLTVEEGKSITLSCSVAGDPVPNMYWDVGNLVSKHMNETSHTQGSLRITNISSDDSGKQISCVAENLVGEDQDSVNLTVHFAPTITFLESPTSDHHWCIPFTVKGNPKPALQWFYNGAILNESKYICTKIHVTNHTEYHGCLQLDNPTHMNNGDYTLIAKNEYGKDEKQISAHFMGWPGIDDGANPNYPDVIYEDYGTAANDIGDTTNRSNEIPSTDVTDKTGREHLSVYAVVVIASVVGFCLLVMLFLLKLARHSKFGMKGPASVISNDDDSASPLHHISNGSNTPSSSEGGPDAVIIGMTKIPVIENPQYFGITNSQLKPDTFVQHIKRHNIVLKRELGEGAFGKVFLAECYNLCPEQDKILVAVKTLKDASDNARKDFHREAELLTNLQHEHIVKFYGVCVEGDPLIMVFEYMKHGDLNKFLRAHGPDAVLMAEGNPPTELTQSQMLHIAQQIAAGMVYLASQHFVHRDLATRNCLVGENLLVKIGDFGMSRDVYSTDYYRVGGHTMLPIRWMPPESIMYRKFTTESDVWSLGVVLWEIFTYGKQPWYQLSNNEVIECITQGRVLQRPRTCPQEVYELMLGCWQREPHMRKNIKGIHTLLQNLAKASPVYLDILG
Sequence of MAP3K9 (human) (P80192 whole entry, looked up): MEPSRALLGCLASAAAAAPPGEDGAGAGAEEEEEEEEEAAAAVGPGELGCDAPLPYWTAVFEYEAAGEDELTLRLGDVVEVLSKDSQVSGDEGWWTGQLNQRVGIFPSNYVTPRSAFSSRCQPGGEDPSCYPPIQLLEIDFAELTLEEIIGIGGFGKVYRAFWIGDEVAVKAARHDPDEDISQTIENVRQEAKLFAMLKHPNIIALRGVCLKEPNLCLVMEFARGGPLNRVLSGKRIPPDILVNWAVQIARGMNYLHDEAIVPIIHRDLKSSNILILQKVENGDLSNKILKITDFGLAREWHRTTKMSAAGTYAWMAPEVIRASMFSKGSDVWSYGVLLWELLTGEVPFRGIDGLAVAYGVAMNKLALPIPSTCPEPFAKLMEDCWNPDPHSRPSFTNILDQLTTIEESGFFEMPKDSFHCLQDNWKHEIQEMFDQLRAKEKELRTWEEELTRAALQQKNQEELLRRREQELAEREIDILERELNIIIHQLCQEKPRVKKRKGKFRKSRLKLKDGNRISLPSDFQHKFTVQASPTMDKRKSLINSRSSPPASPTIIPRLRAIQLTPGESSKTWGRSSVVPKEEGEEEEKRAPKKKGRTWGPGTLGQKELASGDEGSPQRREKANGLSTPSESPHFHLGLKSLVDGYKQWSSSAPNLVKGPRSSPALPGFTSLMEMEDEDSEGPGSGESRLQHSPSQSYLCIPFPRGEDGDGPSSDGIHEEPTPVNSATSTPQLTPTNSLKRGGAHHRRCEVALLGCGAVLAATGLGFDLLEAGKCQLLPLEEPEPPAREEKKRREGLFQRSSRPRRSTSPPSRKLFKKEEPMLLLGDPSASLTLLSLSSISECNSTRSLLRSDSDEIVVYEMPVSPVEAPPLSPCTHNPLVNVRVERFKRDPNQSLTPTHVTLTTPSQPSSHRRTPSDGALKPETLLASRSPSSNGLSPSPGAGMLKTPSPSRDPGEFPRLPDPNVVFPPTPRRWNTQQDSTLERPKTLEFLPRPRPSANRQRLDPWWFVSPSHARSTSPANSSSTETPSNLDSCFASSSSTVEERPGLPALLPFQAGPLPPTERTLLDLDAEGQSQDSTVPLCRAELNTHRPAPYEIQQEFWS
Sequence of BMX (human) (P51813 whole entry, looked up): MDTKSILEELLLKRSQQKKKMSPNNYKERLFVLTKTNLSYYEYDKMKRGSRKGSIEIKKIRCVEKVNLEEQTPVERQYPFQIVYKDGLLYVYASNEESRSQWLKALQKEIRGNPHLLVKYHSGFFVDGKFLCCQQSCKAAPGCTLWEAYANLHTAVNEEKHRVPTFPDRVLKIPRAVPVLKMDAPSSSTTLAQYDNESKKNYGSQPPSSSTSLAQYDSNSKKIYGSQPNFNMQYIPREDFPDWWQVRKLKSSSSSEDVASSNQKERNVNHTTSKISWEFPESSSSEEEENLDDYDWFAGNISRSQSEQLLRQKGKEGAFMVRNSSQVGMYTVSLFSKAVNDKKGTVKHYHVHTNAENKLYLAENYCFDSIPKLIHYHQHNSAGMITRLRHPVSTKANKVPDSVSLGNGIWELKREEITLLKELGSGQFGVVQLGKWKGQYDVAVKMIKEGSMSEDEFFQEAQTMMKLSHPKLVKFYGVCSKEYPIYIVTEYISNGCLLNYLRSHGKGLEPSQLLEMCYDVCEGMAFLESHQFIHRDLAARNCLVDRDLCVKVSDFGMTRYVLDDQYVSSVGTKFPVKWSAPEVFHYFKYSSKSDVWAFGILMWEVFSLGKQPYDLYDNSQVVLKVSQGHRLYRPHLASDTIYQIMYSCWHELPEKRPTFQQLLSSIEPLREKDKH
Sequence of MAPK10 (human) (P53779 whole entry, looked up): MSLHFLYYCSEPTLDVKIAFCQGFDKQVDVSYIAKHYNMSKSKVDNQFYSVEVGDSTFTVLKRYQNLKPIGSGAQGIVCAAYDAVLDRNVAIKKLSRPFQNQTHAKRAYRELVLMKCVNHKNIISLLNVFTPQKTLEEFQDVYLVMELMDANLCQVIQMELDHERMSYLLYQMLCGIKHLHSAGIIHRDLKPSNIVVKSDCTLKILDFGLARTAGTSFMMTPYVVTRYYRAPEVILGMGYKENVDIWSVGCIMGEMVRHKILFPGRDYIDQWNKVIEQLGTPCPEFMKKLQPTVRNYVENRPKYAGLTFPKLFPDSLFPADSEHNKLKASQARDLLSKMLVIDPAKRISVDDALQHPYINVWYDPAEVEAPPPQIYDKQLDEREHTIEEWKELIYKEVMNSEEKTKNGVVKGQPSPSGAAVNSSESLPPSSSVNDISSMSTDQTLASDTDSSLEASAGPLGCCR
Sequence of CSNK1G1 (human) (Q9HCP0 whole entry, looked up): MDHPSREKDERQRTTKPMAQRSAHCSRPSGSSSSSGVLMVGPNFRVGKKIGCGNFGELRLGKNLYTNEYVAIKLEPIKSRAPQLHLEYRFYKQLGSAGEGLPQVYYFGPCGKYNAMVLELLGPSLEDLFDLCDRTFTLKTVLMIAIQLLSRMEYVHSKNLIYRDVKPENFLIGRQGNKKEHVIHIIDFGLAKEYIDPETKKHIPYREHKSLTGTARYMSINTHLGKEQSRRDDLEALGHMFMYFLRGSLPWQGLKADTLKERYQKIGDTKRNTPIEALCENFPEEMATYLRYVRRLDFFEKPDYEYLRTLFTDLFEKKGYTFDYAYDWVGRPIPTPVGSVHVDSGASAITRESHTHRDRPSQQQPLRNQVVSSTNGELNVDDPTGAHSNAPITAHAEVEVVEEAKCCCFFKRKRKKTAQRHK

Compound: CO[C@H]1CC2CC[C@@H](C)[C@@](O)(O2)C(=O)C(=O)N2CCCC[C@H]2C(=O)OC([C@H](C)C[C@@H]2CC[C@@H](O)[C@H](OC)C2)CC(=O)[C@H](C)/C=C(\C)[C@@H](O)[C@@H](OC)C(=O)[C@H](C)C[C@H](C)/C=C/C=C/C=C/1C (some centres undefined)
- residual activity [1]: 94.2%
- residual activity [2]: 99.5%
- residual activity [3]: 96.6%
- residual activity [4]: 118%
- residual activity [5]: 91.3%
- residual activity [6]: 87%
- residual activity [7]: 107%
- residual activity [8]: 99%
- residual activity [9]: 94.4%
- residual activity [10]: 101%
- residual activity [11]: 96%
- residual activity [12]: 107%
- residual activity [13]: 100%
- residual activity [14]: 99%
- residual activity [15]: 114%
- residual activity [16]: 98%
- residual activity [17]: 92.9%
- residual activity [18]: 92.5%
- residual activity [19]: 103%
- residual activity [20]: 107%
- residual activity [21]: 94.8%
- residual activity [22]: 87.3%
- residual activity [23]: 95.9%
- residual activity [24]: 99%
- residual activity [25]: 88.1%
- residual activity [26]: 104%
- residual activity [27]: 106%
- residual activity [28]: 101%
- residual activity [29]: 140%
- residual activity [30]: 106%
- residual activity [31]: 89.8%
- residual activity [32]: 108%
- residual activity [33]: 102%
- residual activity [34]: 105%
- residual activity [35]: 98.2%
- residual activity [36]: 99%
- residual activity [37]: 88%
- residual activity [38]: 102%
- residual activity [39]: 97.6%
- residual activity [40]: 117%
- residual activity [41]: 101%

Compound: O=C1Nc2ccc(Cl)cc2/C1=C/c1cc(Cl)c(O)c(Cl)c1
- residual activity [1]: 80.4%
- residual activity [2]: 106%
- residual activity [3]: 94.8%
- residual activity [4]: 52.5%
- residual activity [5]: 90%
- residual activity [6]: 95.2%
- residual activity [7]: 86.4%
- residual activity [8]: 70.2%
- residual activity [9]: 90.9%
- residual activity [10]: 85%
- residual activity [11]: 89%
- residual activity [12]: 89.6%
- residual activity [13]: 94%
- residual activity [14]: 72.8%
- residual activity [15]: 90.9%
- residual activity [16]: 97.3%
- residual activity [17]: 88.4%
- residual activity [18]: 91.8%
- residual activity [19]: 103%
- residual activity [20]: 36.9%
- residual activity [21]: 95.7%
- residual activity [22]: 102%
- residual activity [23]: 98.8%
- residual activity [24]: 81.1%
- residual activity [25]: 88.7%
- residual activity [26]: 81.5%
- residual activity [27]: 61.1%
- residual activity [28]: 72.5%
- residual activity [29]: 78.7%
- residual activity [30]: 91.5%
- residual activity [31]: 114%
- residual activity [32]: 105%
- residual activity [33]: 86.7%
- residual activity [34]: 95.3%
- residual activity [35]: 91.5%
- residual activity [36]: 95.5%
- residual activity [37]: 73.8%
- residual activity [38]: 71.6%
- residual activity [39]: 81.3%
- residual activity [40]: 84.4%
- residual activity [41]: 78.3%

Compound: CNc1cc2c(Nc3cccc(Br)c3)ncnc2cn1
- residual activity [1]: 84.8%
- residual activity [2]: 98.6%
- residual activity [3]: 93.9%
- residual activity [4]: 92.6%
- residual activity [5]: 88.6%
- residual activity [6]: 106%
- residual activity [7]: 108%
- residual activity [8]: 85.7%
- residual activity [9]: 87.6%
- residual activity [10]: 82%
- residual activity [11]: 81.7%
- residual activity [12]: 94.1%
- residual activity [13]: 89.9%
- residual activity [14]: 70%
- residual activity [15]: 91.2%
- residual activity [16]: 83.8%
- residual activity [17]: 82.8%
- residual activity [18]: 92.5%
- residual activity [19]: 79.9%
- residual activity [20]: 76.2%
- residual activity [21]: 74.9%
- residual activity [22]: 94.4%
- residual activity [23]: 96.1%
- residual activity [24]: 82.2%
- residual activity [25]: 32.3%
- residual activity [26]: 70.3%
- residual activity [27]: 94.3%
- residual activity [28]: 97.5%
- residual activity [29]: 85%
- residual activity [30]: 90.8%
- residual activity [31]: 102%
- residual activity [32]: 101%
- residual activity [33]: 94.7%
- residual activity [34]: 98.6%
- residual activity [35]: 92.3%
- residual activity [36]: 86.4%
- residual activity [37]: 54.4%
- residual activity [38]: 92.4%
- residual activity [39]: 95.3%
- residual activity [40]: 100%
- residual activity [41]: 74.7%

Compound: CNC(=O)c1cc(Oc2ccc(NC(=O)Nc3ccc(Cl)c(C(F)(F)F)c3)cc2)ccn1
- residual activity [1]: 99.4%
- residual activity [2]: 105%
- residual activity [3]: 93.3%
- residual activity [4]: 103%
- residual activity [5]: 98.2%
- residual activity [6]: 98.3%
- residual activity [7]: 173%
- residual activity [8]: 102%
- residual activity [9]: 99.3%
- residual activity [10]: 90.3%
- residual activity [11]: 102%
- residual activity [12]: 97.7%
- residual activity [13]: 98.9%
- residual activity [14]: 42%
- residual activity [15]: 93.2%
- residual activity [16]: 97.3%
- residual activity [17]: 4.85%
- residual activity [18]: 106%
- residual activity [19]: 110%
- residual activity [20]: 99.9%
- residual activity [21]: 109%
- residual activity [22]: 103%
- residual activity [23]: 94.2%
- residual activity [24]: 103%
- residual activity [25]: 70.3%
- residual activity [26]: 88.8%
- residual activity [27]: 90%
- residual activity [28]: 103%
- residual activity [29]: 101%
- residual activity [30]: 95.9%
- residual activity [31]: 94.2%
- residual activity [32]: 96.8%
- residual activity [33]: 104%
- residual activity [34]: 94.5%
- residual activity [35]: 99.7%
- residual activity [36]: 96.2%
- residual activity [37]: 96.9%
- residual activity [38]: 82%
- residual activity [39]: 36.9%
- residual activity [40]: 104%
- residual activity [41]: 82.8%

Source: the kinase profiling compilation of Christmann-Franck et al. (2016)
